Target: Pim-1 (Homo sapiens (Human), UniProt P11309)
Test: Pim kinase binding activity assay (Example 901), PIM-1 enzyme, Caliper microfluidic peptide phosphorylation
Format: biochemical
Details: 20 pM PIM-1, 10 μM ATP, 1 μM FAM-peptide, 90 minutes at room temperature
Description: Pim Kinase Binding Activity
A fluorescent-labeled Pim-specific peptide substrate, was custom synthesized by American Peptide Company (Sunnyvale, Calif.). Reaction Buffer contained 10 mM HEPES, pH 7.2, 10 mM MgCl2, 0.01% Tween 20, 2 mM DTT. Termination Buffer contained 190 mM HEPES, pH 7.2, 0.015% Brij-35, 0.2% Coating Reagent 3 (Caliper Life Sciences, Hopkinton, Mass.), 20 mM EDTA. Separation Buffer contained 100 mM HEPES, pH 7.2, 0.015% Brij-35, 0.1% Coating Reagent 3, 1:200 Coating Reagent 8 (Caliper Life Sciences, Hopkinton, Mass.), 10 mM EDTA and 5% DMSO.
PIM reactions were carried out in a final volume of 10 μL per well in a 384-well plate. A standard enzymatic reaction, initiated by the addition of 5 μL 2×ATP and test compound to 5 μL of 2× enzyme and FAM-peptide, contained 20 pM PIM-1, 50 pM PIM-2, or 55 pM PIM-3, 1 μM FAM-peptide, and 10 μM ATP, in Reaction Buffer. After 90 minutes of incubation at room temperature, the phosphorylation reaction was stopped by the addition of 10 μL Termination Buffer. The product and substrate in each independent reaction were separated on a 12-sipper microfluidic chip (Caliper Life Sciences, Hopkinton, Mass.) run on a Caliper LC3000® (Caliper Life Sciences, Hopkinton, Mass.). The separation of product and substrate was optimized by choosing voltages and pressure using Caliper's Optimizer software (Hopkinton, Mass.). […] The product and substrate fluorophore were excited at 488 nm and detected at 530 nm. Substrate conversion was calculated from the electropherogram using HTS Well Analyzer software (Caliper Life Sciences, Hopkinton, Mass.). Ki values for the test compound were calculated.

Chain of Pim-1 (P11309 whole entry): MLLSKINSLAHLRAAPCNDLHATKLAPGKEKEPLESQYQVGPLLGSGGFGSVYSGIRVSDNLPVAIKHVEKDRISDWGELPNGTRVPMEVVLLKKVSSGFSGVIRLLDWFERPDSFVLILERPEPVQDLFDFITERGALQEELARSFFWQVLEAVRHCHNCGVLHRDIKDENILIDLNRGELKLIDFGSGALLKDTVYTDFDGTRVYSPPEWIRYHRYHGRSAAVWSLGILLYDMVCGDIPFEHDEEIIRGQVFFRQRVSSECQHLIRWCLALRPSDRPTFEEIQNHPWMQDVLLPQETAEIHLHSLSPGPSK

SMILES	Ki [nM]
Cc1n[nH]c2cnc(-c3cccnc3)cc12 [Example 101, 3-methyl-5-(pyridin-3-yl)-1H-pyrazolo[3,4-c]pyridine]	190
Cc1n[nH]c2cnc(-c3cn[nH]c3)cc12 [Example 102, 3-methyl-5-(1H-pyrazol-4-yl)-1H-pyrazolo[3,4-c]pyridine]	302
Cc1n[nH]c2cnc(-c3ccn[nH]3)cc12 [Example 103, 3-methyl-5-(1H-pyrazol-5-yl)-1H-pyrazolo[3,4-c]pyridine]	1300
N[C@H]1CCCN(Cc2n[nH]c3cnc(-c4cccnc4)cc23)C1 [Example 104, (S)-1-((5-(pyridin-3-yl)-1H-pyrazolo[3,4-c]pyridin-3-yl)methyl)piperidin-3-amine]	3000
N[C@@H]1CCCN(Cc2n[nH]c3cnc(-c4cccnc4)cc23)C1 [Example 105, (R)-1-((5-(pyridin-3-yl)-1H-pyrazolo[3,4-c]pyridin-3-yl)methyl)piperidin-3-amine]	3400
NC1CCN(Cc2n[nH]c3cnc(-c4cccnc4)cc23)CC1 [Example 106, 1-((5-(pyridin-3-yl)-1H-pyrazolo[3,4-c]pyridin-3-yl)methyl)piperidin-4-amine]	1400
N[C@H]1CCCN(Cc2n[nH]c3cnc(-c4cn[nH]c4)cc23)C1 [Example 107, (S)-1-((5-(1H-pyrazol-4-yl)-1H-pyrazolo[3,4-c]pyridin-3-yl)methyl)piperidin-3-amine]	3000
NC1CCN(Cc2n[nH]c3cnc(-c4cn[nH]c4)cc23)CC1 [Example 108, l-((5-(1H-pyrazol-4-yl)-1H-pyrazolo[3,4-c]pyridin-3-yl)methyl)piperidin-4-amine]	1100
c1cncc(-c2cc3c(CNC4CCNCC4)n[nH]c3cn2)c1 [Example 109, N-((5-(pyridin-3-yl)-1H-pyrazolo[3,4-c]pyridin-3-yl)methyl)piperidin-4-amine]	3800

Further lines, results first:

Ki [nM]	SMILES
0.046	N[C@@H]1CN(c2cccc(-c3n[nH]c4cnc(-c5cccnc5)cc34)n2)CC[C@@H]1F (relative stereo) [Example 452, cis-4-fluoro-1-(6-(5-(pyridin-3-yl)-1H-pyrazolo[3,4-c]pyridin-3-yl)pyridin-2-yl)piperidin-3-amine]
0.296	N[C@@H]1CN(c2cccc(-c3n[nH]c4cnc(-c5cccnc5)cc34)n2)CC[C@H]1F (relative stereo) [Example 453, trans-4-fluoro-1-(6-(5-(pyridin-3-yl)-1H-pyrazolo[3,4-c]pyridin-3-yl)pyridin-2-yl)piperidin-3-amine]
0.55	CCn1cc(-c2cc3c(-c4cccc(N5CC[C@@H](F)[C@H](N)C5)n4)n[nH]c3cn2)cn1 (relative stereo) [Example 462, trans-1-(6-(5-(1-ethyl-1H-pyrazol-4-yl)-1H-pyrazolo[3,4-c]pyridin-3-yl)pyridin-2-yl)-4-fluoropiperidin-3-amine]
0.063	CCn1cc(-c2cc3c(-c4cccc(N5CC[C@H](F)[C@H](N)C5)n4)n[nH]c3cn2)cn1 (relative stereo) [Example 465, cis-1-(6-(5-(1-ethyl-1H-pyrazol-4-yl)-1H-pyrazolo[3,4-c]pyridin-3-yl)pyridin-2-yl)-4-fluoropiperidin-3-amine]
0.0079	N[C@H]1CCCC(Nc2cccc(-c3n[nH]c4cnc(-c5cccnc5)cc34)n2)C1 (stereo in doubt) [Example 245, (1S,3S)—N1-(6-(5-(pyridin-3-yl)-1H-pyrazolo[3,4-c]pyridin-3-yl)pyridin-2-yl)cyclohexane-1,3-diamine]
5.8	Cc1n[nH]c2cnc(-c3cncc(N4CCC(N)CC4)n3)cc12 [Example 110, 1-(6-(3-methyl-1H-pyrazolo[3,4-c]pyridin-5-yl)pyrazin-2-yl)piperidin-4-amine]
4000	N[C@H]1CCCN(Cc2n[nH]c3cnc(-c4cn[nH]c4)cc23)C1 [Example 111, (S)-1-((5-(1H-pyrazol-4-yl)-1H-pyrazolo[3,4-c]pyridin-3-yl)methyl)piperidin-3-amine]
